Assay results published in patent publication US5856510A, “5-alkenyl and 5-alkynyl indole compounds” (Allelix Biopharmaceuticals Inc., priority 1996, dated 1999).
pEC50: −log10 of the molar value. Like-named read-outs stand apart in the source and are kept apart here.

Biological target: T1, 5-HT1D-like receptor (rabbit isolated saphenous vein) (Oryctolagus cuniculus, UniProt P49144)
T1 construct: contracting the rabbit saphenous vein; from tissue; host or cells: rabbit saphenous vein rings, endothelium removed
T1 sequence (P49144 whole entry): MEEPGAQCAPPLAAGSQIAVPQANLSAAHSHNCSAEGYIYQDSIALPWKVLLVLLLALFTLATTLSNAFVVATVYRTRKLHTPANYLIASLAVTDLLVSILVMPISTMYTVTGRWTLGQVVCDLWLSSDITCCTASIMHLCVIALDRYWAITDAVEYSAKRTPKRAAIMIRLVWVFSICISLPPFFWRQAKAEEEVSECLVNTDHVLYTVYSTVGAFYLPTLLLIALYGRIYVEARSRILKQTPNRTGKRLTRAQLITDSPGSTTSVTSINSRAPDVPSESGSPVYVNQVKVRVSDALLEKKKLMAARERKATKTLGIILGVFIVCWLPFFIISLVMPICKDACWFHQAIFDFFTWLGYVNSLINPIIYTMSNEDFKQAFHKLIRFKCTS
Test: Agonist Assay: contraction of the rabbit isolated saphenous vein (5-HT1D-like receptor agonist activity)
Format: cell-based, rabbit (male New Zealand White)

Row | SMILES | pEC50 | pEC50 (contraction of rabbit isolated saphenous vein, concentration causing 50% of the maximum contraction effected by the compound, prazosin, idazoxan and indomethacin 1 μM each, 37° C., pH 7.4, read-out: EC50)
1 | C=Cc1ccc2[nH]cc(C[C@H]3CCCN3C)c2c1 [Example 7c, (R)-3-[(N-Methylpyrrolidin-2-yl)methyl]-5-vinyl-1H-indole] | 7.10 | 
2 | C=Cc1ccc2[nH]cc(C3CCN(C)C3)c2c1 (stereo not shown) [Example 7d, 3-(N-Methylpyrrolidin-3-yl)-5-vinyl-1H-indole] |  | 6.74
3 | C=Cc1ccc2[nH]cc(CCN(C)C)c2c1 [Example 7a, 3-[2-(N,N-Dimethylamino)ethyl]-5-vinyl-1H-indole] | 6.89 | 
4 | C=Cc1ccc2[nH]cc(CCN3CCCC3)c2c1 [Example 7b, 3-[2-(N-Pyrrolidinyl)ethyl]-5-vinyl-1H-indole] | 5.24 | 
